Test results from patent US8044198B2, “Sirtuin modulating compounds” (Sirtris Pharmaceuticals, Inc., priority 2005, dated 2011).
Like-named read-outs stand apart in the source and are kept apart here.

Target: T1, SIRT1 (Homo sapiens, UniProt Q96EB6)
T1 sequence (Q96EB6 1-747): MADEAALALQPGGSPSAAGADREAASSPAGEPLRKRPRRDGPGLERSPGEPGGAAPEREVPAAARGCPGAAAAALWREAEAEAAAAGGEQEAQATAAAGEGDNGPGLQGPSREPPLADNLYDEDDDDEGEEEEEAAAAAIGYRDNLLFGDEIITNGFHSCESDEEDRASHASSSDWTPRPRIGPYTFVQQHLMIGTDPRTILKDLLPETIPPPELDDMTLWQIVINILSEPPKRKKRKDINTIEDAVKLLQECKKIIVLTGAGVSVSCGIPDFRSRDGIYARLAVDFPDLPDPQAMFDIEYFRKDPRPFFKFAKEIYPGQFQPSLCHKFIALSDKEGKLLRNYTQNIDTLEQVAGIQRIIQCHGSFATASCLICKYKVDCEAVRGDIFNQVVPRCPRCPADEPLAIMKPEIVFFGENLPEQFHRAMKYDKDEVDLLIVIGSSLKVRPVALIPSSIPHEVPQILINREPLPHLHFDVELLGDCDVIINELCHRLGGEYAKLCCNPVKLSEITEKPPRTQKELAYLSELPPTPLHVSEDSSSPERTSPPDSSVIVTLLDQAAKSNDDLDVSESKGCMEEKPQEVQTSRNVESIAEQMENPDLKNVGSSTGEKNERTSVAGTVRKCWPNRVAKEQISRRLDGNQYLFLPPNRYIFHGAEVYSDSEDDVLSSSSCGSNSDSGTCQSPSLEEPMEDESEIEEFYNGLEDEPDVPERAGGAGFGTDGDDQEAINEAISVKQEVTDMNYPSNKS
Experiment: SIRT1 mass spectrometry (MS) based deacetylation assay; for FOLD ACT. MS: test concentration or dose not given here
Format: biochemical
Settings: for EC50: read-out: ED50 MS ASSAY

[1] = SIRT1 activation, mass spectrometry assay
[2] = fold activation of SIRT1 as determined by MS
[3] = Sirt1 activators, fold activation as determined by MS
[4] = Sirt1 activators, mass spectrometry assay
[5] = fold activation of SIRT1, mass spectrometry assay
[6] = SIRT1 fold activation as determined by MS

Row | SMILES | EC50 [1] | EC50 [4] | other results
1 | CN(C)c1cccc(C(=O)Nc2cncc(-c3nc4ncccc4o3)c2)c1 [Compound 68] | 5 to 50 µM | – | –
2 | O=C(Nc1cccc(-c2nc3nc(CN4CCNCC4)ccc3o2)c1)c1cnc2ccccc2n1 [Compound 514] | – | 5 to 50 µM | FOLD ACT. MS [3]: B (B (Fold Activation <250%))
3 | COC(=O)c1ccc(-n2cncn2)c(NC(=O)c2ccc(OC)c(OC)c2)c1 [Compound 258] | 5 to 50 µM | – | FOLD ACT. MS [5]: B (B (Fold Activation <250%))
4 | O=C(Nc1ccccc1-c1nc2cccnc2[nH]1)c1ccc(N2CCOCC2)cc1 [Compound 526] | – | < 5 µM | FOLD ACT. MS [3]: A (A (Fold activation >250%))
5 | CN(C)c1cccc(C(=O)Nc2ccc(-c3nc4cnccc4o3)s2)c1 [Compound 427] | < 5 µM | – | FOLD ACT. MS [5]: B (B (Fold Activation <250%))
6 | O=C(Nc1ccccc1-c1nc2cc(CN3CCNCC3)cnc2s1)c1cc(-c2ccccc2)no1 [Compound 732] | < 5 µM | – | FOLD ACT. MS [6]: B (B (Fold Activation <250%))
7 | COc1ccc(C(=O)Nc2ccccc2-n2cccn2)cc1OC [Compound 177] | > 150 µM | – | FOLD ACT. MS [2]: B (B (Fold Activation <250%))
8 | COc1ccc(NC(=S)Nc2cc(-c3nc4ncccc4o3)ccn2)cc1OC [Compound 660] | – | 5 to 50 µM | FOLD ACT. MS [3]: B (B (Fold Activation <250%))
9 | COc1cc(C(=O)Nc2ccccc2-c2nc3cccnc3[nH]2)ccc1CN1CCOCC1 [Compound 537] | – | < 5 µM | FOLD ACT. MS [3]: A (A (Fold activation >250%))
10 | COc1ccc(C(=O)Nc2cccc(-c3nc4ncccc4s3)c2)c(OC)c1 [Compound 202] | < 5 µM | – | FOLD ACT. MS [2]: B (B (Fold Activation <250%))
11 | COc1cc(OC)cc(C(=O)Nc2ccccc2-c2nc3cc(CN4CCN(C)CC4)cnc3s2)c1 [Compound 725] | < 5 µM | – | FOLD ACT. MS [6]: A (A (Fold activation >250%))
12 | Cc1ccc(C(=O)Nc2ccccc2-c2nc3cc(CN4CCOCC4)cnc3s2)cc1C [Compound 684] | 5 to 50 µM | – | FOLD ACT. MS [6]: B (B (Fold Activation <250%))
13 | COc1cc(C(=O)Nc2cccc(-c3cn4cccnc4n3)c2)cc(OC)c1OC [Compound 218] | < 5 µM | – | FOLD ACT. MS [5]: A (A (Fold activation >250%))
14 | CN(C)c1cccc(C(=O)Nc2cc(-c3nc4ncccc4o3)ccn2)c1 [Compound 76] | 5 to 50 µM | – | FOLD ACT. MS [2]: B (B (Fold Activation <250%))
15 | COc1ccc(C(=O)Nc2cccc(-c3cccnc3)c2)c(OC)c1 [Compound 331] | 5 to 50 µM | – | FOLD ACT. MS [5]: B (B (Fold Activation <250%))
16 | COc1ccc(C(=O)Nc2ccc(-c3nc4cccnc4[nH]3)cc2)cc1OC [Compound 150] | < 5 µM | – | FOLD ACT. MS [2]: B (B (Fold Activation <250%))
17 | O=C(Nc1cccc(-c2nc3ccncc3s2)c1)c1cc(C(F)(F)F)ccc1C(F)(F)F [Compound 248] | 5 to 50 µM | – | FOLD ACT. MS [5]: B (B (Fold Activation <250%))
18 | COc1cc(C(=O)Nc2ccccc2-c2nc3ccccc3[nH]2)ccc1CN1CCOCC1 [Compound 503] | – | < 5 µM | FOLD ACT. MS [3]: A (A (Fold activation >250%))

Row | SMILES | EC50 [1] | EC50 [4] | other results
19 | O=S(=O)(Nc1cccc(-c2nc3ccncc3s2)c1)c1ccc(S(=O)(=O)c2ccccc2)s1 [Compound 654] | – | – | IC50 (Sirt1 Inhibitors, mass spectrometry assay): > 150 µM
20 | c1ccc2oc(N3CCCN(c4nc5ccccc5o4)CC3)nc2c1 [Compound 85] | > 150 µM | – | –
21 | COc1ccc(C(=O)Nc2cccc(-c3nc4ccncc4o3)c2)c(OC)c1OC [Compound 452] | 5 to 50 µM | – | FOLD ACT. MS [5]: B (B (Fold Activation <250%))
22 | COc1ccc(C(=O)Nc2cccc(-c3nc4cccnc4[nH]3)c2)c(OC)c1OC [Compound 181] | < 5 µM | – | FOLD ACT. MS [2]: A (A (Fold activation >250%))
23 | CN(C)c1cccc(C(=O)Nc2ccc(-c3nc4ncccc4s3)cc2)c1 [Compound 196] | 5 to 50 µM | – | FOLD ACT. MS [2]: B (B (Fold Activation <250%))
24 | COc1cc(C(=O)Nc2ccccc2-c2nc3cc(CN(C)C)cnc3s2)cc(OC)c1OC [Compound 689] | 5 to 50 µM | – | FOLD ACT. MS [6]: A (A (Fold activation >250%))
25 | COc1cc(OC)cc(C(=O)Nc2ccccc2-c2nc3cc(CN4CCNCC4)cnc3s2)c1 [Compound 589] | – | < 5 µM | FOLD ACT. MS [3]: A (A (Fold activation >250%))
26 | COc1cc(C(=O)Nc2cccc(-c3cn4ccc(C)cc4n3)c2)cc(OC)c1OC [Compound 129] | < 5 µM | – | FOLD ACT. MS [2]: A (A (Fold activation >250%))
27 | O=C(Nc1ccccc1-c1nc2cc(CN3CCNCC3)cnc2s1)c1cccc(C(F)(F)F)c1 [Compound 731] | 5 to 50 µM | – | FOLD ACT. MS [6]: A (A (Fold activation >250%))
28 | COc1ccc(NC(=S)Nc2cccc(-c3nc4ccncc4s3)c2)cc1OC [Compound 600] | – | > 150 µM | –
29 | COc1cc(C(=O)Nc2cccc(-c3nc4ncccc4o3)c2)ccc1CN1CCCC1 [Compound 506] | – | 5 to 50 µM | FOLD ACT. MS [3]: A (A (Fold activation >250%))
30 | COc1cc(C(=O)Nc2ccccc2-c2nc3ncccc3o2)ccc1CN1CCCC1 [Compound 629] | – | 5 to 50 µM | FOLD ACT. MS [3]: A (A (Fold activation >250%))
31 | COc1cc(OC)cc(C(=O)Nc2ccccc2-c2nc3cnccc3s2)c1 [Compound 318] | 5 to 50 µM | – | FOLD ACT. MS [5]: B (B (Fold Activation <250%))
32 | COc1cc(OC)cc(C(=O)Nc2ccccc2-c2nc3cc(CN(C)C)cnc3s2)c1 [Compound 722] | < 5 µM | – | FOLD ACT. MS [6]: A (A (Fold activation >250%))
33 | O=C(CCc1ccccc1)Nc1ccccc1-c1nc2ccncc2s1 [Compound 460] | – | 5 to 50 µM | –
34 | CN(C)c1cccc2c(S(=O)(=O)Nc3cccc(-c4nc5ccncc5s4)c3)cccc12 [Compound 398] | 5 to 50 µM | – | FOLD ACT. MS [5]: B (B (Fold Activation <250%))
35 | COc1cc(C(=O)Nc2ccc(-c3nc4cnccc4o3)cc2)cc(OC)c1OC [Compound 347] | < 5 µM | – | FOLD ACT. MS [5]: B (B (Fold Activation <250%))

Further lines, with some results ahead:

Row | EC50 [1] | EC50 [4] | SMILES | other results
36 | < 5 µM | – | COc1cc(C(=O)Nc2ccccc2-c2cn3ccsc3n2)cc(OC)c1OC [Compound 204] | FOLD ACT. MS [2]: A (A (Fold activation >250%))
37 | – | < 5 µM | O=C(Nc1ccccc1-c1nc2ccccc2[nH]1)c1ccc2ccccc2n1 [Compound 556] | FOLD ACT. MS [3]: A (A (Fold activation >250%))
38 | 5 to 50 µM | – | O=C(Nc1ccccc1-c1cn2c(C(=O)O)csc2n1)c1cnc2ccccc2n1 [Compound 719] | FOLD ACT. MS [6]: A (A (Fold activation >250%))
39 | 5 to 50 µM | – | O=C(Nc1ccccc1-c1nc2ccncc2s1)c1ccc(Oc2ccccc2)nc1 [Compound 392] | FOLD ACT. MS [5]: B (B (Fold Activation <250%))
40 | – | < 5 µM | CN(C)c1ccc(C(=O)Nc2ccccc2-c2nc3cccnc3[nH]2)cc1 [Compound 534] | FOLD ACT. MS [3]: B (B (Fold Activation <250%))
41 | 5 to 50 µM | – | N#Cc1cccc(C(=O)Nc2ccccc2-c2cn3c(CN4CCNCC4)csc3n2)c1 [Compound 330] | FOLD ACT. MS [5]: A (A (Fold activation >250%))
42 | < 5 µM | – | COc1ccc(C(=O)Nc2ccccc2-c2nc3cnccc3s2)c(OC)c1 [Compound 317] | FOLD ACT. MS [5]: B (B (Fold Activation <250%))
43 | – | < 5 µM | O=C(Nc1ccccc1-c1cn2cc(CN3CCNCC3)sc2n1)c1cnc2ccccc2n1 [Compound 513] | FOLD ACT. MS [3]: A (A (Fold activation >250%))
44 | 5 to 50 µM | – | CN(C)c1cccc(C(=O)Nc2ccccc2-c2cn3c(CN4CCNCC4)csc3n2)c1 [Compound 327] | FOLD ACT. MS [5]: A (A (Fold activation >250%))
45 | – | < 5 µM | CN(C)CCOCc1csc2nc(-c3ccccc3NC(=O)c3cnc4ccccc4n3)cn12 [Compound 647] | FOLD ACT. MS [3]: A (A (Fold activation >250%))
46 | 101 to 150 µM | – | O=C(Nc1ccccc1-c1cn2c(CN3CCNCC3)csc2n1)c1cccc2cccnc12 [Compound 692] | FOLD ACT. MS [6]: B (B (Fold Activation <250%))
47 | 5 to 50 µM | – | CC(C)(C)OC(=O)CNCc1csc2nc(-c3ccccc3NC(=O)c3cnc4ccccc4n3)cn12 [Compound 711] | FOLD ACT. MS [6]: B (B (Fold Activation <250%))
48 | – | < 5 µM | O=C(Nc1ccccc1-c1cn2c(CO)csc2n1)c1cnc2ccccc2n1 [Compound 648] | FOLD ACT. MS [3]: B (B (Fold Activation <250%))
49 | < 5 µM | – | Cc1csc2nc(-c3ccccc3NC(=O)c3cccc(N(C)C)c3)cn12 [Compound 740] | FOLD ACT. MS [6]: B (B (Fold Activation <250%))
50 | 5 to 50 µM | – | COc1cc(C(=O)Nc2ccccc2-c2cn3c(CN(C)C)csc3n2)cc(OC)c1OC [Compound 206] | FOLD ACT. MS [2]: A (A (Fold activation >250%))
51 | – | 5 to 50 µM | COc1ccc(C(=O)Nc2ccccc2-c2cn3c(CN4CCNCC4)csc3n2)cc1F [Compound 679] | FOLD ACT. MS [3]: B (B (Fold Activation <250%))
52 | 51 to 100 µM | – | COc1ccc(C(=O)Nc2ccccc2-c2cnc3ccccc3c2)c(OC)c1 [Compound 413] | FOLD ACT. MS [5]: B (B (Fold Activation <250%))
53 | < 5 µM | – | CN1CCN(Cc2csc3nc(-c4ccccc4NC(=O)c4cnc5ccccc5n4)cn23)C(=O)C1 [Compound 741] | FOLD ACT. MS [6]: A (A (Fold activation >250%))
